In patent publication US4849416A, “Treatment of conditions requiring enhanced oxygen availability to mammalian tissues” (Rorer Pharmaceutical Corporation, priority 1988, dated 1989):

Tests used:
[1] = test system: 2,3-diphosphoglycerate phosphatase; conditions: at optimal concentrations; cited from earlier work
2,3-DPG phosphatase = biological target: T1, 2,3-DPG phosphatase (Homo sapiens, UniProt P07738); assay: 2,3-Diphosphoglycerate phosphatase assay (radiochemical, release of 32P-phosphate from 2,3-DPG); assay type: biochemical; conditions: 110 μM 2,3-DPG, 5 μM phosphoglycolate, pH 7.5, 37° C., 20 minutes
T1 sequence (P07738 1-259): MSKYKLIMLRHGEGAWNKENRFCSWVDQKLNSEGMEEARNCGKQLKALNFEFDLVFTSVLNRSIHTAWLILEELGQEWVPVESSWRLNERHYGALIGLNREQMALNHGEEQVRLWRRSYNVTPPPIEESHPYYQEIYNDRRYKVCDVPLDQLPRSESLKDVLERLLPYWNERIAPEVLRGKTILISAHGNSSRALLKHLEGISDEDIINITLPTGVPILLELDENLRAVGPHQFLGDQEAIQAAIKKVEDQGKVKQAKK
Protocol: 1. 2,3-Diphosphoglycerate Phosphatase Assay
The activity of 2,3-DPG phosphatase was determined radiochemically using a method based on Rose et al., (J. Biol. Chem. 245, 3232-3241, 1970). In this method the activity of the phosphatase is measured by determining the release of inorganic phosphate from the substrate, 2,3-DPG. The test compounds were dissolved in dimethyl sulfoxide at 100 times the final concentration used and then added to the reaction mixture at the beginning of the assay period. In the control experiments equivalent concentration of dimethyl sulfoxide was used.
14 μg of 2,3-DPG phosphatase was incubated in 0.2 ml of N-tris-[Hydroxy-methyl]methyl-2-aminoethane-sulfonic acid [TES], at pH 7.5, containing 110 μM ^32 p-labeled 2,3-DPG (having a specific activity of 70 to 200 μCi/μmol), 5 μM phosphoglycolate and 5 μM mercaptoethanol at 37° C. for 20 minutes in the presence and absence of the test compound. at the end of incubation the reaction was stopped by the addition of 0.1 ml of 15% w/v trichloroacetic acid and the sample was centrifuged (Eppendorf microfuge, Model 5413) in order to remove protein preciptitates. Then 0.2 ml of the supernatant was withdrawn and mixed with 0.1 ml of 8 M sulfuric acid, 0.1 ml of 5% w/v ammonium molybdate and 0.6 ml of water. The mixture then was extracted with 2 ml of isobutanol/benzene (1:1,v/v) and then centrifuged to effect separation of the phases. 1 ml of the organic phase containing the extracted ^32 p-phosphate was counted in a scintillation counter (Beckman, Model LS 8,000) using a program for ^32 p radioactivity. The activity of the enzyme was expressed as number of mole phosphate released per minute.
From the data obtained using the radiochemical method, percent inhibition of 2,3-DPG phosphatase was calculated. […] Representative inhibitory activity is shown for sulfasalazine in Table I.

human red blood cells = assay: Determination of 2,3-diphosphoglyceric acid content in human red blood cells; assay type: cell-based
Protocol: 2. Determination of 2,3-Diphosphoglyceric Acid Content in Human Red Blood Cells Blood samples from healthy subjects were collected in heparnized tubes and were centrifuged for 10 minutes at 400 xg. The plasma and buffy layer containing while cells and platelets was removed. The red blood cells were washed three times in Krebs Ringer Bicarbonate buffer supplemented with 2.5 mg/ml bovine serum albumin. The washed cells were suspended in the same buffer in a ratio of 1 cell to 4 buffer v/v. The cell suspension was incubated in siliconized glass beakers in the absence and presence of the test compound at 37° C. in air, supplemented with 5% v/v carbon dioxide. After incubation, 1 ml of the blood sample was mixed with 1 ml of 12% w/v trichloroacetic acid. The mixture was left at 4° C. for 10 minutes and then was clarified by centrifugation. The 2,3-DPG content in the supernatant was quantified using a Sigma assay kit based on the method described by Lowry et al, J. Biol. Chem. 239, 18, 1964. Inhibition of 2,3-diphosphoglyceric acid degredation in human red blood cells was also conducted on compounds of the present invention and is shown in Table II for sulfasalazine.

Row | Compound | enhancement of the activity of 2,3-diphosphoglycerate phosphatase [1] | inhibition at 20 µM (2,3-DPG phosphatase; sulfasalazine 20 μM) [%] | inhibition at 100 µM (2,3-DPG phosphatase; sulfasalazine 100 μM) [%] | inhibition at 500 µM (2,3-DPG phosphatase; sulfasalazine 500 μM) [%] | inhibition at 1000 µM (2,3-DPG phosphatase; sulfasalazine 1000 μM) [%] | 2,3-diphosphoglyceric acid content (human red blood cells; sulfasalazine 0.5 mM, incubation period 0 hrs, 37° C.) [μmole/ml RBC] | 2,3-diphosphoglyceric acid content (human red blood cells; sulfasalazine 0.5 mM, incubation period 3 hrs, 37° C. (control 3.7)) [μmole/ml RBC] | 2,3-diphosphoglyceric acid content (human red blood cells; sulfasalazine 0.5 mM, incubation period 6 hrs, 37° C. (control 2.4)) [μmole/ml RBC] | 2,3-diphosphoglyceric acid content (human red blood cells; sulfasalazine 1.0 mM, incubation period 0 hrs, 37° C.) [μmole/ml RBC] | 2,3-diphosphoglyceric acid content (human red blood cells; sulfasalazine 1.0 mM, incubation period 3 hrs, 37° C. (control 3.7)) [μmole/ml RBC] | 2,3-diphosphoglyceric acid content (human red blood cells; sulfasalazine 1.0 mM, incubation period 6 hrs, 37° C. (control 2.4)) [μmole/ml RBC]
1 | O=C(O)COP(=O)(O)O [2-Phosphoglycolate] | about 1600 fold | – | – | – | – | – | – | – | – | – | –
2 | O=C(O)c1cc(N=Nc2ccc(S(=O)(=O)Nc3ccccn3)cc2)ccc1O [sulfasalazine, 5-[[p-(2-pyridylsulfamoyl)phenyl]azo]salicyclic acid] | – | 23 | 57 | 86 | 90 | 4.4 | 3.9 | 3.0 | 4.4 | 4.1 | 3.5
